Values after ≈ are worked out from the molar mass of the structure shown.
Biological target: Clitocybe nebularis lectin (CNL) (Clitocybe nebularis, UniProt B2ZRS9)
Assay: hemagglutination inhibition assay, human group A erythrocytes
Conditions: CNL 18.6 µg/ml; 20 mM Tris/HCl, 130 mM NaCl, pH 7.5; room temperature

Clitocybe nebularis lectin (CNL), sequence (B2ZRS9 2-149): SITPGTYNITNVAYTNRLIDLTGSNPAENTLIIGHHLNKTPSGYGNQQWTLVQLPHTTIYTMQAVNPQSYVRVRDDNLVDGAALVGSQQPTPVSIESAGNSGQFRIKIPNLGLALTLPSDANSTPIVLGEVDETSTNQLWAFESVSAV

SMILES: OC[C@H]1O[C@@H](O[C@H]2[C@H](O)[C@@H](O)C(O)O[C@@H]2CO)[C@H](O)[C@@H](O)[C@H]1O (stereo partly shown) [lactose]
- minimum inhibitory concentration: 4.65 mM (≈ 1590 µg/mL)
